# Patent US10087185B2 (Janssen Pharmaceutica NV, priority 2016, dated 2018)
# Target: TARP γ8 dependent AMPA receptor (GRIA1o-CACNG8 fusion construct) (Homo sapiens (Human), UniProt P42261+Q8WXS5)
# Test: Calcium flux assay (FLIPR), inhibition of glutamate response of GluA1o-γ8 channel
# Assay type: cell-based
# Conditions: HEK293 cells stably expressing GRIA1o-CACNG8 fusion; calcium flux after 15 μM glutamate; negative log of the IC50 in molar
# Method in brief: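 HEK293 clonal line stably expressing a GRIA1o-CACNG8 fusion (1:1 GluA1o:γ8), loaded with Calcium-5/6 dye plus compound in HEPES buffer pH 7.4. FLIPR calcium flux read after 15 μM glutamate; normalized to no-compound and 10 μM CP465022 controls. Four-parameter logistic fit gives IC50, reported as pIC50.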
# Sequence of TARP γ8 dependent AMPA receptor (GRIA1o-CACNG8 fusion construct) (P42261 other isoform, or with tags, fused parts or gaps): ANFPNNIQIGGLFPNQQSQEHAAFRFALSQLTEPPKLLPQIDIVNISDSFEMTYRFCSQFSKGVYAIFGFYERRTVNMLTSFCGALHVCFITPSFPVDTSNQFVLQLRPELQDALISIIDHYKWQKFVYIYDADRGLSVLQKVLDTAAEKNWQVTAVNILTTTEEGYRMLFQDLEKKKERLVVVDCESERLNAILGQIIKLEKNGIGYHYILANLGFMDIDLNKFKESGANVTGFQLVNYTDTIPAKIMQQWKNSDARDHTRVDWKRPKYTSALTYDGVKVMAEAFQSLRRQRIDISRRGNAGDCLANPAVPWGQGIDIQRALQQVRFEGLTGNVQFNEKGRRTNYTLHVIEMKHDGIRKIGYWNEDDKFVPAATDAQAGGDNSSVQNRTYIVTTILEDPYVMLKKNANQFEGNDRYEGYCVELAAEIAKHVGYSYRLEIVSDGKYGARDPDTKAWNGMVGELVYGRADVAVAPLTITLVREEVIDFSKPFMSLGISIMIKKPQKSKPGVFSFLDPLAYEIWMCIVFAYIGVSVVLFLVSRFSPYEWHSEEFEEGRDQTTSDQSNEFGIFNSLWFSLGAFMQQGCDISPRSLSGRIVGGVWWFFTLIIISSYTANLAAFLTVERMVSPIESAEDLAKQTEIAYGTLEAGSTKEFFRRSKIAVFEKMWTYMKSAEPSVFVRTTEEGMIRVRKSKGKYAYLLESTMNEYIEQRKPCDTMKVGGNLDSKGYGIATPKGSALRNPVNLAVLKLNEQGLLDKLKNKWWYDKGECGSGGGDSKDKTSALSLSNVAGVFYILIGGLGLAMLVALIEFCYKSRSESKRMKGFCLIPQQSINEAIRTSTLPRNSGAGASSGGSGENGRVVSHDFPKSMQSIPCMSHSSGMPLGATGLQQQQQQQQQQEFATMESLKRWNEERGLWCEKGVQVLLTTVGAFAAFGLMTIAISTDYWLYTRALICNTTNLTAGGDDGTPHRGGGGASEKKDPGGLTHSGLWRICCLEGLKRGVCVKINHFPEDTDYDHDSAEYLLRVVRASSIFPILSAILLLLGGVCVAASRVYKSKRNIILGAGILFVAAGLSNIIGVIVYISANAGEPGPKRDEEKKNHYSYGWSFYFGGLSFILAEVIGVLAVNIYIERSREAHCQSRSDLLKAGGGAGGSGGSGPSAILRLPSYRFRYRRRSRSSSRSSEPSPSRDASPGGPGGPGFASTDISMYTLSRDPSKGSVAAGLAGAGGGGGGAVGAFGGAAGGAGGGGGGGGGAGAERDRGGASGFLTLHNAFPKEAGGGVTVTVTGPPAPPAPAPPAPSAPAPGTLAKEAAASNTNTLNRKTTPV
row,IC50,Structure (SMILES)
1,0.1 nM,"Cc1cc(C(F)F)c(-c2cc(Cl)c3[nH]ncc3c2)n2nc(C3CC3)nc12 [Example 112, 5-(7-Chloro-1H-indazol-5-yl)-2-cyclopropyl-6-(difluoromethyl)-8-methyl-[1,2,4]triazolo[1,5-a]pyridine]"
2,0.316 nM,"Cc1cc(-c2c(C(F)(F)F)ccc3nc(C4CC4)nn23)cc2cn[nH]c12 [Example 39, 2-Cyclopropyl-5-(7-methyl-1H-indazol-5-yl)-6-(trifluoromethyl)-[1,2,4]triazolo[1,5-a]pyridine]"
3,0.0631 nM,"FC(F)(F)c1ccc2cc(C3CC3)nn2c1-c1cc(Cl)c2[nH]ncc2c1 [Example 70, 7-Chloro-5-(2-cyclopropyl-6-(trifluoromethyl)pyrazolo[1,5-a]pyridin-7-yl)-1H-indazole]"
4,0.398 nM,"CCc1cc(C(F)(F)F)c(-c2cc(Cl)c3[nH]ncc3c2)n2nc(C(F)F)nc12 [Example 87, 5-(7-Chloro-1H-indazol-5-yl)-2-(difluoromethyl)-8-ethyl-6-(trifluoromethyl)-[1,2,4]triazolo[1,5-a]pyridine]"
5,0.631 nM,"Cc1cc(-c2c(C(F)F)ccc3nc(C(F)(F)F)nn23)cc2c1NC(=O)C2 [Example 19, 5-[6-(Difluoromethyl)-2-(trifluoromethyl)-[1,2,4]triazolo[1,5-a]pyridin-5-yl]-7-methyl-indolin-2-one]"
6,3.16 nM,"CCc1nc2c(CC)cc(C(F)(F)F)c(-c3cc(C)c4[nH]ncc4c3)n2n1 [Example 90, 2,8-Diethyl-5-(7-methyl-1H-indazol-5-yl)-6-(trifluoromethyl)-[1,2,4]triazolo[1,5-a]pyridine]"
7,0.2 nM,"Cc1cc(-c2c(C(F)(F)F)ccc3nc(C(F)(F)F)nn23)cc2cn[nH]c12 [Example 2, 5-(7-Methyl-1H-indazol-5-yl)-2,6-bis(trifluoromethyl)-[1,2,4]triazolo[1,5-a]pyridine]"
8,0.316 nM,"Cc1cc(-c2c(C(F)(F)F)cc(C)c3nc(C(F)(F)F)nn23)cc2c1NC(=O)C2 [Example 105, 7-Methyl-5-(8-methyl-2,6-bis(trifluoromethyl)-[1,2,4]triazolo[1,5-a]pyridin-5-yl)indolin-2-one]"
9,0.794 nM,"Cc1cc(-c2c(C(F)F)ccc3nc(C4CC4)nn23)cc2cn[nH]c12 [Example 49, 2-Cyclopropyl-6-(difluoromethyl)-5-(7-methyl-1H-indazol-5-yl)-[1,2,4]triazolo[1,5-a]pyridine]"
10,0.158 nM,"CCc1cc(C(F)F)c(-c2cc(Cl)c3[nH]ncc3c2)n2nc(C3CC3)nc12 [Example 93, 5-(7-Chloro-1H-indazol-5-yl)-2-cyclopropyl-6-(difluoromethyl)-8-ethyl-[1,2,4]triazolo[1,5-a]pyridine]"
11,0.316 nM,"Cc1cc(C(F)F)c(-c2cc(Cl)c3c(c2)CC(=O)N3)n2nc(C3CC3)nc12 [Example 113, 7-Chloro-5-(2-cyclopropyl-6-(difluoromethyl)-8-methyl-[1,2,4]triazolo[1,5-a]pyridin-5-yl)indolin-2-one]"
12,0.398 nM,"CCc1nc2ccc(C(F)F)c(-c3cc(Cl)c4[nH]ncc4c3)n2n1 [Example 44, 5-(7-Chloro-1H-indazol-5-yl)-6-(difluoromethyl)-2-ethyl-[1,2,4]triazolo[1,5-a]pyridine]"
13,0.398 nM,"CCc1nc2ccc(C(F)(F)F)c(-c3cc(Cl)c4[nH]ncc4c3)n2n1 [Example 25, 5-(7-Chloro-1H-indazol-5-yl)-2-ethyl-6-(trifluoromethyl)-[1,2,4]triazolo[1,5-a]pyridine]"
14,0.126 nM,"Cc1cc(-c2c(C(F)F)cc(C)c3cc(C(F)(F)F)nn23)cc2cn[nH]c12 [Example 123, 6-(Difluoromethyl)-4-methyl-7-(7-methyl-1H-indazol-5-yl)-2-(trifluoromethyl)pyrazolo[1,5-a]pyridine]"
15,1 nM,"CCCc1nc2c(C)cc(C(F)(F)F)c(-c3cc(C)c4[nH]ncc4c3)n2n1 [Example 84, 8-Methyl-5-(7-methyl-1H-indazol-5-yl)-2-propyl-6-(trifluoromethyl)-[1,2,4]triazolo[1,5-a]pyridine]"
16,3.98 nM,"CCc1nc2ccc(C(F)(F)F)c(-c3cc(C)c4c(c3)CC(=O)N4)n2n1 [Example 28, 5-(2-Ethyl-6-(trifluoromethyl)-[1,2,4]triazolo[1,5-a]pyridin-5-yl)-7-methylindolin-2-one]"
17,3.98 nM,"Cc1cc(C(F)(F)F)c(-c2cc(C#N)c3c(c2)CC(=O)N3)n2nc(C(F)(F)F)nc12 [Example 108, 5-(8-Methyl-2,6-bis(trifluoromethyl)-[1,2,4]triazolo[1,5-a]pyridin-5-yl)-2-oxoindoline-7-carbonitrile]"
18,0.398 nM,"CCc1nc2c(C)cc(C(F)(F)F)c(-c3cc(Cl)c4[nH]ncc4c3)n2n1 [Example 35, 5-(7-Chloro-1H-indazol-5-yl)-2-ethyl-8-methyl-6-(trifluoromethyl)-[1,2,4]triazolo[1,5-]pyridine]"

# Continued, molecule first:
row,Structure (SMILES),IC50
1,"CCc1nc2ccc(-c3ccc(F)cc3)c(-c3cc(C)c4[nH]ncc4c3)n2n1 [Example 61, 2-Ethyl-6-(4-fluorophenyl)-5-(7-methyl-1H-indazol-5-yl)-[1,2,4]triazolo[1,5-a]pyridine]",0.2 nM
2,"CCc1ccc2nc(C(F)(F)F)nn2c1-c1cc(C)c2[nH]ncc2c1 [Example 52, 6-Ethyl-5-(7-methyl-1H-indazol-5-yl)-2-(trifluoromethyl)-[1,2,4]triazolo[1,5-a]pyridine]",0.501 nM
3,"O=C1Cc2cc(-c3c(C(F)(F)F)ccc4cc(C5CC5)nn34)cc(Cl)c2N1 [Example 68, 5-(2-Cyclopropyl-6-(trifluoromethyl)pyrazolo[1,5-a]pyridin-7-yl)-7-chloroindolin-2-one]",0.02 nM
4,"Cc1nc2ccc(C(F)(F)F)c(-c3cc(C)c4c(c3)CC(=O)N4)n2n1 [Example 24, 7-Methyl-5-(2-methyl-6-(trifluoromethyl)-[1,2,4]triazolo[1,5-a]pyridin-5-yl)indolin-2-one]",20 nM
5,"Cc1cc(-c2c(C(F)(F)F)cc(F)c3nc(C4CC4)nn23)cc2cn[nH]c12 [Example 33, 2-Cyclopropyl-8-fluoro-5-(7-methyl-1H-indazol-5-yl)-6-(trifluoromethyl)-[1,2,4]triazolo[1,5-a]pyridine]",0.2 nM
6,"O=C1Cc2cc(-c3c(C(F)(F)F)ccc4cc(C(F)(F)F)nn34)cc(Cl)c2N1 [Example 66, 5-(2,6-Bis(trifluoromethyl)pyrazolo[1,5-a]pyridin-7-yl)-7-chloroindolin-2-one]",0.0126 nM
7,"CCc1cc(C(F)F)c(-c2cc(Cl)c3[nH]ncc3c2)n2nc(C(F)(F)F)nc12 [Example 91, 5-(7-Chloro-1H-indazol-5-yl)-6-(difluoromethyl)-8-ethyl-2-(trifluoromethyl)-[1,2,4]triazolo[1,5-a]pyridine]",0.501 nM
8,"CCc1nc2c(F)cc(C(F)(F)F)c(-c3cc(Cl)c4[nH]ncc4c3)n2n1 [Example 31, 5-(7-Chloro-1H-indazol-5-yl)-2-ethyl-8-fluoro-6-(trifluoromethyl)-[1,2,4]triazolo[1,5-a]pyridine]",1.26 nM
9,"Cc1cc(C(F)F)c(-c2cc(Cl)c3c(c2)CC(=O)N3)n2nc(C(F)(F)F)cc12 [Example 124, 7-Chloro-5-[6-(difluoromethyl)-4-methyl-2-(trifluoromethyl)pyrazolo[1,5-a]pyridin-7-yl]indolin-2-one]",0.251 nM
10,"FC(F)(F)c1cc2ccc(C(F)(F)F)c(-c3cc(Cl)c4[nH]ncc4c3)n2n1 [Example 63, 5-(2,6-Bis(trifluoromethyl)pyrazolo[1,5-a]pyridin-7-yl)-7-chloro-1H-indazole]",0.0158 nM
11,"COc1cc(-c2c(C(F)(F)F)ccc3nc(C(F)F)nn23)cc2c1NC(=O)C2 [Example 12, 5-(2-(Difluoromethyl)-6-(trifluoromethyl)-[1,2,4]triazolo[1,5-a]pyridin-5-yl)-7-methoxyindolin-2-one]",5.01 nM
12,"Cc1cc(-c2c(C(F)(F)F)cc(C)c3nc(C4CC4)nn23)cc2c1NC(=O)C2 [Example 99, 5-(2-Cyclopropyl-8-methyl-6-(trifluoromethyl)-[1,2,4]triazolo[1,5-a]pyridin-5-yl)-7-methylindolin-2-one]",0.251 nM
13,"Cc1cc(-c2c(C(F)(F)F)ccc3cc(C(F)(F)F)nn23)cc2c1NC(=O)C2 [Example 65, 5-(2,6-Bis(trifluoromethyl)pyrazolo[1,5-a]pyridin-7-yl)-7-methylindolin-2-one]",0.0158 nM
14,"FC(F)c1ccc2nc(C(F)(F)F)nn2c1-c1cc(Cl)c2[nH]ncc2c1 [Example 16, 5-(7-Chloro-1H-indazol-5-yl)-6-(difluoromethyl)-2-(trifluoromethyl)-[1,2,4]triazolo[1,5-a]pyridine]",0.1 nM
15,"CCc1nc2ccc(C(F)(F)F)c(-c3cc(Cl)c4c(c3)CC(=O)N4)n2n1 [Example 27, 7-Chloro-5-(2-ethyl-6-(trifluoromethyl)-[1,2,4]triazolo[1,5-a]pyridin-5-yl)indolin-2-one]",1.26 nM
16,"Cc1cc(-c2c(C(F)(F)F)cc(C)c3nc(C(F)(F)F)nn23)cc2cn[nH]c12 [Example 107, 8-Methyl-5-(7-methyl-1H-indazol-5-yl)-2,6-bis(trifluoromethyl)-[1,2,4]triazolo[1,5-a]pyridine]",0.501 nM
17,"CC(C)c1nc2c(F)cc(C(F)(F)F)c(-c3cc(Cl)c4[nH]ncc4c3)n2n1 [Example 34, 5-(7-Chloro-1H-indazol-5-yl)-8-fluoro-2-isopropyl-6-(trifluoromethyl)-[1,2,4]triazolo[1,5-a]pyridine]",0.316 nM
18,"CCc1nc2c(C)cc(C(F)(F)F)c(-c3cc(Cl)c4c(c3)CC(=O)N4)n2n1 [Example 100, 7-Chloro-5-(2-ethyl-8-methyl-6-(trifluoromethyl)-[1,2,4]triazolo[1,5-a]pyridin-5-yl)indolin-2-one]",0.631 nM
